# In PMC8953086, “Repurposing Avasimibe to Inhibit Bacterial Glycosyltransferases” (Pathogens, 2022):
# pIC50: −log10 of the molar value.
# Experiments:
# SseK1 = SseK1 (Salmonella enterica, UniProt A0A0H3NK84); assay: biochemical
# NleB = NleB (Citrobacter rodentium, UniProt A0A482PDI9); assay: biochemical
# NleB, sequence (A0A482PDI9 whole entry, looked up): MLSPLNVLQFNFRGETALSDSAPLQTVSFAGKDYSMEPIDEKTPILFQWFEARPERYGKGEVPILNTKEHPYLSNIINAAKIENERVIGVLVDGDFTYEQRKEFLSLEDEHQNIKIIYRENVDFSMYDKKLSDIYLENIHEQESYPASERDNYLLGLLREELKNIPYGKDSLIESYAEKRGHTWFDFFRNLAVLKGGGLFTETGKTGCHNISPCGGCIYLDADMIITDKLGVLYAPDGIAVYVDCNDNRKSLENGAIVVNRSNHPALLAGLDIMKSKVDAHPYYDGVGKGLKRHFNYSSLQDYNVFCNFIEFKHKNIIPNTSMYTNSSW
# SseK1, sequence (A0A0H3NK84 whole entry, looked up): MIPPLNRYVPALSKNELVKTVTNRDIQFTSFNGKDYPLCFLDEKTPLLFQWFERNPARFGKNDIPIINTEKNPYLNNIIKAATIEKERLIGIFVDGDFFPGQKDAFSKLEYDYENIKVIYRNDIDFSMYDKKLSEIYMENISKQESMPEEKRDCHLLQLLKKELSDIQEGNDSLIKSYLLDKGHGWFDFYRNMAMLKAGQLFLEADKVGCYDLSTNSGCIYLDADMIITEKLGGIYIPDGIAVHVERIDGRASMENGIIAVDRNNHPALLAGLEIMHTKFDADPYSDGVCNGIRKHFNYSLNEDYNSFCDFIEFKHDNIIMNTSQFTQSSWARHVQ
compound,measurement,setting,value
CC(C)c1cc(C(C)C)c(CC(=O)NS(=O)(=O)Oc2c(C(C)C)cccc2C(C)C)c(C(C)C)c1 [avasimibe],pIC50,SseK1,~5.00
same,pIC50,NleB,~5.00
